Data: patent US20190240225A1, “COMBINATION OF A BCL-2 INHIBITOR AND A MCL-1 INHIBITOR, USES AND PHARMACEUTICAL COMPOSITIONS THEREOF” (LES LABORATOIRES SERVIER, priority 2016, published 2019)
pIC50: −log10 of the molar value.

How the values were obtained:
Assay type in all cases: cell-based
RL = test: CellTiterGlo viability, DLBCL cell line; settings: single agent, 2 days
Protocol: In addition, all media contained penicillin (100 IU/ml), streptomycin (100 μg/ml) and L-glutamine (2 mM). Unless otherwise mentioned, culture media and supplements were from Amimed/Bioconcept (Allschwil, Switzerland).
Cell lines were cultured at 37° C. in a humidified atmosphere containing 5% CO2 and expanded in T-75 flasks. In all cases cells were thawed from frozen stocks, expanded through ≥1 passage using appropriate dilutions, counted and assessed for viability using a CASY cell counter (Omni Life Science, Bremen, Germany) prior to plating 25 ul/well at the densities indicated in Table 1 into 384-well plates (Corning).
Stock solutions of compounds were prepared at a concentration of 10 mM in DMSO (Sigma) and stored at −20° C. Where necessary to afford a full dose-response curve, the stock solutions were pre-diluted in DMSO to 1′000-fold the desired start concentration (see Table 2). On the day after cell seeding, eight 2.5-fold serial dilutions of each compound were dispensed, either individually or in all possible permutations in a checkerboard fashion, directly into the cell assay plates using a non-contact 300D Digital Dispenser (ILCAN, Mannedorf, Switzerland) as outlined in FIG. 4. The final concentration of DMSO was 0.2% in all wells.
Effects of the single agents as well as their checkerboard combinations on cell viability were assessed after 2 days of incubation at 37° C./5% CO2 by quantification of cellular ATP levels using CellTiterGlo (Promega, Madison, Wis., USA) at 25 μL reagent/well and n=2 replicate plates per condition. Luminescence was quantified on a M1000 multipurpose platereader (ILCAN, Mannedorf, Switzerland). The number/viability of cells at time of compound addition was likewise assessed and used to assess the degree of the population doubling time of a particular cell line.
Single agent IC50s were calculated using standard four-parametric curve fitting. […] IC50 are defined as the compound concentration at which the CTG signal is reduced to 50% of that measured for the vehicle (DMSO) control.

HPB-ALL = test: CellTiterGlo viability, T-ALL cell line; settings: single agent, 72 h
Protocol: (§1) In addition, all media contained penicillin (100 IU/ml), streptomycin (100 μg/ml) and L-glutamine (2 mM). Cell lines were cultured at 37° C. in a humidified atmosphere containing 5% CO2 and expanded in T-150 flasks. In all cases cells were thawed from frozen stocks, expanded through ≥1 passage using appropriate dilutions, counted and assessed for viability using a CASY cell counter prior to plating 150 ul/well at the densities indicated in Table 9 into 96-well plates. All cell lines were determined to be free of mycoplasma contamination in-house.
(§2) Stock solutions of compounds were prepared at a concentration of 5 mM in DMSO and stored at −20° C. In order to analyse the activity of the compounds as single agents, cells were seeded and treated with nine 2-fold serial dilutions of each compound dispensed individually directly into the cell assay plates. Effects of the compounds on cell viability were assessed after 3 days of incubation at 37° C./5% CO2 by quantification of cellular ATP levels using CellTiterGlo at 75 μL reagent/well. All the conditions were tested in triplicates. Luminescence was quantified on a multipurpose plate reader. Single agent IC50s were calculated using standard four-parametric curve fitting. IC50 is defined as the compound concentration at which the CTG signal is reduced to 50% of that measured for the vehicle (DMSO) control.
(§3) In order to analyse the activity of the compounds in combination, cells were seeded and treated with seven or eight 3.16-fold serial dilutions of each compound dispensed, either individually or in all possible permutations in a checkerboard fashion, directly into the cell assay plates as indicated in FIG. 1. Effects of the single agents as well as their checkerboard combinations on cell viability were assessed after 3 days of incubation at 37° C./5% CO2 by quantification of cellular ATP levels using CellTiterGlo at 75 μL reagent/well. For B-ALL cell lines, two independent experiments, each one performed in duplicates, were performed. For T-ALL cell lines, one experiment performed in triplicate was performed. Luminescence was quantified on a multipurpose plate reader.
(§4) Potential synergistic interactions between compound combinations were assessed using the Excess Inhibition 2D matrix according to the Loewe additivity model and are reported as Synergy Score (Lehar et al, Nat Biotechnol. 2009 July; 27(7): 659-666). All calculations were performed using Chalice TM Bioinformatics Software available in Horizon website. The doubling time indicated in Table 9 is the mean of the doubling time obtained in the different passages (in T-150 flasks) performed from the thawing of the cells to their seeding in the 96-well plates.

TALL-104 = test: CellTiterGlo viability, T-ALL cell line; settings: single agent, 72 h
Protocol: as §1, §2, §3, §4

BE-13 = test: CellTiterGlo viability, T-ALL cell line; settings: single agent, 72 h
Protocol: as §1, §2, §3, §4

CML-T1 = test: CellTiterGlo viability, T-ALL cell line; settings: single agent, 72 h
Protocol: as §1, §2, §3, §4

MV4;11 = test: CellTiterGlo viability, AML cell line; settings: single agent, 3 days
Protocol: (§5) In addition, all media contained penicillin (100 IU/ml), streptomycin (100 μg/ml) and L-glutamine (2 mM).
as §1, with “Cell” for “In addition, all media contained penicillin (100 IU/ml), streptomycin (100 μg/ml) and L-glutamine (2 mM). Cell”, “Table 1” for “Table 9”
(§6) Stock solutions of compounds were prepared at a concentration of 5 mM in DMSO and stored at −20° C.
as §2, with “In” for “Stock solutions of compounds were prepared at a concentration of 5 mM in DMSO and stored at −20° C. In”, “experiments” for “conditions”, “performed” for “tested”
as §3, with “9.” for “1.”, “Two” for “For B-ALL cell lines, two”, “performed.” for “performed. For T-ALL cell lines, one experiment performed in triplicate was performed.”
(§7) Potential synergistic interactions between compound combinations were assessed using the Excess Inhibition 2D matrix according to the Loewe additivity model and are reported as Synergy Score (Lehar et al, Nat Biotechnol. 2009 July; 27(7): 659-666). All calculations were performed using Clalice™ Bioinformatics Software.

THP-1 = test: CellTiterGlo viability, AML cell line; settings: single agent, 3 days
Protocol: as §5
as §1, with “Cell” for “In addition, all media contained penicillin (100 IU/ml), streptomycin (100 μg/ml) and L-glutamine (2 mM). Cell”, “Table 1” for “Table 9”
as §6
as §2, with “In” for “Stock solutions of compounds were prepared at a concentration of 5 mM in DMSO and stored at −20° C. In”, “experiments” for “conditions”, “performed” for “tested”
as §3, with “9.” for “1.”, “Two” for “For B-ALL cell lines, two”, “performed.” for “performed. For T-ALL cell lines, one experiment performed in triplicate was performed.”
as §7

PL-21 = test: CellTiterGlo viability, AML cell line; settings: single agent, 3 days
Protocol: as §5
as §1, with “Cell” for “In addition, all media contained penicillin (100 IU/ml), streptomycin (100 μg/ml) and L-glutamine (2 mM). Cell”, “Table 1” for “Table 9”
as §6
as §2, with “In” for “Stock solutions of compounds were prepared at a concentration of 5 mM in DMSO and stored at −20° C. In”, “experiments” for “conditions”, “performed” for “tested”
as §3, with “9.” for “1.”, “Two” for “For B-ALL cell lines, two”, “performed.” for “performed. For T-ALL cell lines, one experiment performed in triplicate was performed.”
as §7

KG1a = test: CellTiterGlo viability, AML cell line; settings: single agent, 3 days
Protocol: as §5
as §1, with “Cell” for “In addition, all media contained penicillin (100 IU/ml), streptomycin (100 μg/ml) and L-glutamine (2 mM). Cell”, “Table 1” for “Table 9”
as §6
as §2, with “In” for “Stock solutions of compounds were prepared at a concentration of 5 mM in DMSO and stored at −20° C. In”, “experiments” for “conditions”, “performed” for “tested”
as §3, with “9.” for “1.”, “Two” for “For B-ALL cell lines, two”, “performed.” for “performed. For T-ALL cell lines, one experiment performed in triplicate was performed.”
as §7

EOL-1 = test: CellTiterGlo viability, AML cell line; settings: single agent, 3 days
Protocol: as §5
as §1, with “Cell” for “In addition, all media contained penicillin (100 IU/ml), streptomycin (100 μg/ml) and L-glutamine (2 mM). Cell”, “Table 1” for “Table 9”
as §6
as §2, with “In” for “Stock solutions of compounds were prepared at a concentration of 5 mM in DMSO and stored at −20° C. In”, “experiments” for “conditions”, “performed” for “tested”
as §3, with “9.” for “1.”, “Two” for “For B-ALL cell lines, two”, “performed.” for “performed. For T-ALL cell lines, one experiment performed in triplicate was performed.”
as §7

Kasumi-1 = test: CellTiterGlo viability, AML cell line; settings: single agent, 3 days
Protocol: as §5
as §1, with “Cell” for “In addition, all media contained penicillin (100 IU/ml), streptomycin (100 μg/ml) and L-glutamine (2 mM). Cell”, “Table 1” for “Table 9”
as §6
as §2, with “In” for “Stock solutions of compounds were prepared at a concentration of 5 mM in DMSO and stored at −20° C. In”, “experiments” for “conditions”, “performed” for “tested”
as §3, with “9.” for “1.”, “Two” for “For B-ALL cell lines, two”, “performed.” for “performed. For T-ALL cell lines, one experiment performed in triplicate was performed.”
as §7

HL-60 = test: CellTiterGlo viability, AML cell line; settings: single agent, 3 days
Protocol: as §5
as §1, with “Cell” for “In addition, all media contained penicillin (100 IU/ml), streptomycin (100 μg/ml) and L-glutamine (2 mM). Cell”, “Table 1” for “Table 9”
as §6
as §2, with “In” for “Stock solutions of compounds were prepared at a concentration of 5 mM in DMSO and stored at −20° C. In”, “experiments” for “conditions”, “performed” for “tested”
as §3, with “9.” for “1.”, “Two” for “For B-ALL cell lines, two”, “performed.” for “performed. For T-ALL cell lines, one experiment performed in triplicate was performed.”
as §7

KG1 = test: CellTiterGlo viability, AML cell line; settings: single agent, 3 days
Protocol: as §5
as §1, with “Cell” for “In addition, all media contained penicillin (100 IU/ml), streptomycin (100 μg/ml) and L-glutamine (2 mM). Cell”, “Table 1” for “Table 9”
as §6
as §2, with “In” for “Stock solutions of compounds were prepared at a concentration of 5 mM in DMSO and stored at −20° C. In”, “experiments” for “conditions”, “performed” for “tested”
as §3, with “9.” for “1.”, “Two” for “For B-ALL cell lines, two”, “performed.” for “performed. For T-ALL cell lines, one experiment performed in triplicate was performed.”
as §7

MOLM-13 = test: CellTiterGlo viability, AML cell line; settings: single agent, 3 days
Protocol: as §5
as §1, with “Cell” for “In addition, all media contained penicillin (100 IU/ml), streptomycin (100 μg/ml) and L-glutamine (2 mM). Cell”, “Table 1” for “Table 9”
as §6
as §2, with “In” for “Stock solutions of compounds were prepared at a concentration of 5 mM in DMSO and stored at −20° C. In”, “experiments” for “conditions”, “performed” for “tested”
as §3, with “9.” for “1.”, “Two” for “For B-ALL cell lines, two”, “performed.” for “performed. For T-ALL cell lines, one experiment performed in triplicate was performed.”
as §7

Nomo-1 = test: CellTiterGlo viability, AML cell line; settings: single agent, 3 days
Protocol: as §5
as §1, with “Cell” for “In addition, all media contained penicillin (100 IU/ml), streptomycin (100 μg/ml) and L-glutamine (2 mM). Cell”, “Table 1” for “Table 9”
as §6
as §2, with “In” for “Stock solutions of compounds were prepared at a concentration of 5 mM in DMSO and stored at −20° C. In”, “experiments” for “conditions”, “performed” for “tested”
as §3, with “9.” for “1.”, “Two” for “For B-ALL cell lines, two”, “performed.” for “performed. For T-ALL cell lines, one experiment performed in triplicate was performed.”
as §7

ML-2 = test: CellTiterGlo viability, AML cell line
Protocol: as §5
as §1, with “Cell” for “In addition, all media contained penicillin (100 IU/ml), streptomycin (100 μg/ml) and L-glutamine (2 mM). Cell”, “Table 1” for “Table 9”
as §6
as §2, with “In” for “Stock solutions of compounds were prepared at a concentration of 5 mM in DMSO and stored at −20° C. In”, “experiments” for “conditions”, “performed” for “tested”
as §3, with “9.” for “1.”, “Two” for “For B-ALL cell lines, two”, “performed.” for “performed. For T-ALL cell lines, one experiment performed in triplicate was performed.”
as §7

GDM-1 = test: CellTiterGlo viability, AML cell line; settings: single agent, 3 days
Protocol: as §5
as §1, with “Cell” for “In addition, all media contained penicillin (100 IU/ml), streptomycin (100 μg/ml) and L-glutamine (2 mM). Cell”, “Table 1” for “Table 9”
as §6
as §2, with “In” for “Stock solutions of compounds were prepared at a concentration of 5 mM in DMSO and stored at −20° C. In”, “experiments” for “conditions”, “performed” for “tested”
as §3, with “9.” for “1.”, “Two” for “For B-ALL cell lines, two”, “performed.” for “performed. For T-ALL cell lines, one experiment performed in triplicate was performed.”
as §7

Question: Which results are given for `COc1ccccc1-c1nccc(COc2ccccc2C[C@@H](Oc2ncnc3sc(-c4ccc(F)cc4)c(-c4ccc(OCCN5CCN(C)CC5)c(Cl)c4C)c23)C(=O)O)n1` [Compound 3, (2R)-2-{[(5Sa)-5-{3-chloro-2-methyl-4-[2-(4-methylpiperazin-1-yl)ethoxy]phenyl}-6-(4-fluorophenyl)thieno[2,3-d]pyrimidin-4-yl]oxy}-3-(2-{[2-(2-methoxyphenyl)pyrimidin-4-yl]methoxy}phenyl)propanoic acid]?
Answer: Max Inh (RL): 95.4%; pIC50 (RL; read-out: Abs IC50): 5.52; pIC50 (HPB-ALL): 6.18; pIC50 (TALL-104): 7.36; pIC50 (BE-13): 7.82; pIC50 (CML-T1): 5.22; pIC50 (MV4;11): 9.00; Mean of Max Inh (MV4;11; combination (c) experiment): 100.0%; pIC50 (THP-1): 7.77; pIC50 (PL-21): 7.19; pIC50 (KG1a): 5.70; pIC50 (EOL-1): 9.00; pIC50 (Kasumi-1): 7.48; pIC50 (HL-60): 7.60; pIC50 (KG1): 6.41; pIC50 (MOLM-13): 8.70; Mean of Max Inh (MOLM-13; combination (c) experiment): 100%; pIC50 (Nomo-1): 7.89; growth inhibition (ML-2; fifth lowest concentration tested, Compound 4, HCl / Compound 3 experiment): 26%; pIC50 (ML-2; single agent, 3 days): 8.30; Mean of Max Inh (ML-2; single agent, combination (c) experiment, 3 days): 100%; pIC50 (GDM-1): 8.10; Mean of Max Inh (GDM-1; combination (c) experiment): 100%
